According to PubChem BioAssay (NCI):
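96-well plates; 48 h exposure; 5 concentrations. Endpoints by linear interpolation between flanking doses. Not reached: highest tested concentration assigned. Here, GI50 denotes the concentration required for 50% inhibition of growth. At the TGI there is no net growth.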

What was measured:
Assay in all cases: inhibition of tumour cell growth, NCI panel, 48 h
[1] = system: MDA-MB-468 breast
[2] = system: HT29 colon
[3] = system: SF-539 CNS
[4] = system: KM12 colon
[5] = system: SF-268 CNS
[6] = system: CCRF-CEM leukemia
[7] = system: MDA-MB-435
[8] = system: NCI/ADR-RES ovarian
[9] = system: SK-MEL-2 melanoma
[10] = system: UACC-257 melanoma
[11] = system: BT-549 breast
[12] = system: OVCAR-3 ovarian
[13] = system: SK-MEL-5 melanoma
[14] = system: HOP-92 NSCLC
[15] = system: SN12C renal
[16] = system: TK-10 renal
[17] = system: A498 renal
[18] = system: SR leukemia
[19] = system: M14 melanoma
[20] = system: UO-31 renal
[21] = system: NCI-H23 lung
[22] = system: SW-620 colon
[23] = system: T-47D breast
[24] = system: OVCAR-8 ovarian
[25] = system: OVCAR-5 ovarian
[26] = system: U251 CNS
[27] = system: UACC-62 melanoma
[28] = system: LOX IMVI melanoma
[29] = system: SK-MEL-28 melanoma
[30] = system: HOP-62 NSCLC
[31] = system: COLO 205 colon
[32] = system: HCT-15 colon
[33] = system: HCC-2998 colon
[34] = system: SF-295 CNS
[35] = system: MDA-MB-231 breast
[36] = system: HS 578T breast
[37] = system: PC-3 prostate
[38] = system: MOLT-4 leukemia
[39] = system: ACHN renal
[40] = system: A549 NSCLC
[41] = system: CAKI-1 renal
[42] = system: SK-OV-3 ovarian
[43] = system: NCI-H522 lung
[44] = system: HCT-116 colon
[45] = system: OVCAR-4 ovarian
[46] = system: SNB-75 CNS
[47] = system: K-562 leukemia
[48] = system: DU-145 prostate
[49] = system: EKVX NSCLC
[50] = system: NCI-H226 lung
[51] = system: IGROV1 ovarian
[52] = system: NCI-H460 lung
[53] = system: HL-60(TB) leukemia
[54] = system: MCF7 breast
[55] = system: RPMI-8226 leukemia
[56] = system: MALME-3M melanoma
[57] = system: SNB-19 CNS
[58] = system: 786-0 renal
[59] = system: RXF 393 renal

With `COC(=O)CCn1c(-c2ccc(-n3cc(-c4ccc(O[C@H]5O[C@@H]6OC7(C)CC[C@H]8[C@H](C)CC[C@@H]([C@H]5C)[C@@]68OO7)cc4)nn3)cc2)nc2ccccc21` the GI50 [1] was 177 nM, the TGI [1] was 0.588 µM and the GI50 [2] was 0.0753 µM. The TGI [2] was greater than 9.25 µM, the GI50 [3] was 197 nM and the TGI [3] was greater than 9.25 µM. The GI50 [4] was 52.5 nM, the TGI [4] was greater than 9.25 µM and the GI50 [5] was 0.242 µM. The TGI [5] was greater than 9.25 µM, the GI50 [6] was 51.7 nM and the TGI [6] was greater than 9.25 µM. For the same molecule, the GI50 [7] was 0.078 µM, the TGI [7] was greater than 9.25 µM and the GI50 [8] was 307 nM. It also gave a TGI [8] greater than 9.25 µM, a GI50 [9] of 238 nM and a TGI [9] of 812 nM. The GI50 [10] was 0.276 µM, the TGI [10] was greater than 9.25 µM and the GI50 [11] was 127 nM. For the same molecule, the TGI [11] was 0.693 µM, the GI50 [12] was 100 nM and the TGI [12] was greater than 9.25 µM. It also gave a GI50 [13] of 216 nM, a TGI [13] of 1.13 µM and a GI50 [14] of 128 nM. For the same molecule, the TGI [14] was 0.765 µM, the GI50 [15] was 189 nM and the TGI [15] was greater than 9.25 µM. The GI50 [16] was 0.386 µM, the TGI [16] was greater than 9.25 µM and the GI50 [17] was 5.4 µM. It also gave a TGI [17] greater than 9.25 µM, a GI50 [18] of 40.2 nM and a TGI [18] of 1.14 µM. The GI50 [19] was 0.36 µM, the TGI [19] was greater than 9.25 µM and the GI50 [20] was 194 nM. It also gave a TGI [20] of 1050 nM, a GI50 [21] of 65.5 nM and a TGI [21] of 6.49 µM. It also gave a GI50 [22] of 43.8 nM, a TGI [22] greater than 9.25 µM and a GI50 [23] of 37.4 nM. It also gave a TGI [23] greater than 9.25 µM, a GI50 [24] of 0.128 µM and a TGI [24] greater than 9.25 µM. The GI50 [25] was 0.134 µM, the TGI [25] was greater than 9.25 µM and the GI50 [26] was 61 nM. For the same molecule, the TGI [26] was greater than 9.25 µM, the GI50 [27] was 135 nM and the TGI [27] was 1.97 µM. The GI50 [28] was 37.1 nM, the TGI [28] was 0.158 µM and the GI50 [29] was 148 nM. It also gave a TGI [29] greater than 9.25 µM, a GI50 [30] of 0.558 µM and a TGI [30] greater than 9.25 µM. It also gave a GI50 [31] of 0.0685 µM, a TGI [31] greater than 9.25 µM and a GI50 [32] of 37.6 nM. For the same molecule, the TGI [32] was greater than 9.25 µM, the GI50 [33] was 319 nM and the TGI [33] was greater than 9.25 µM. The GI50 [34] was 223 nM, the TGI [34] was greater than 9.25 µM and the GI50 [35] was 208 nM. It also gave a TGI [35] of 2420 nM, a GI50 [36] of 205 nM and a TGI [36] of 5.57 µM. For the same molecule, the GI50 [37] was 40 nM, the TGI [37] was greater than 9.25 µM and the GI50 [38] was 37.7 nM. For the same molecule, the TGI [38] was 1.62 µM, the GI50 [39] was 262 nM and the TGI [39] was 1.36 µM. It also gave a GI50 [40] of 0.277 µM, a TGI [40] greater than 9.25 µM and a GI50 [41] of 0.333 µM. It also gave a TGI [41] greater than 9.25 µM, a GI50 [42] of 0.64 µM and a TGI [42] greater than 9.25 µM. For the same molecule, the GI50 [43] was 97.6 nM, the TGI [43] was 1.29 µM and the GI50 [44] was 34.3 nM. For the same molecule, the TGI [44] was greater than 9.25 µM, the GI50 [45] was 155 nM and the TGI [45] was greater than 9.25 µM. The GI50 [46] was 257 nM, the TGI [46] was greater than 9.25 µM and the GI50 [47] was 38.8 nM. For the same molecule, the TGI [47] was greater than 9.25 µM, the GI50 [48] was 0.485 µM and the TGI [48] was greater than 9.25 µM. For the same molecule, the GI50 [49] was 150 nM, the TGI [49] was greater than 9.25 µM and the GI50 [50] was 0.163 µM. For the same molecule, the TGI [50] was 2.3 µM, the GI50 [51] was 257 nM and the TGI [51] was greater than 9.25 µM. It also gave a GI50 [52] of 274 nM, a TGI [52] greater than 9.25 µM and a GI50 [53] of 98.4 nM. It also gave a TGI [53] of 0.572 µM, a GI50 [54] of 40.9 nM and a TGI [54] greater than 9.25 µM. The GI50 [55] was 42.7 nM, the TGI [55] was 5.12 µM and the GI50 [56] was 175 nM. For the same molecule, the TGI [56] was 5.42 µM, the GI50 [57] was 274 nM and the TGI [57] was greater than 9.25 µM. For the same molecule, the GI50 [58] was 0.33 µM and the TGI [58] was greater than 9.25 µM.

In the case of `O=C(Nc1nc2ccc([N+](=O)[O-])cc2s1)Nc1cc(Cl)ccc1I`, the GI50 [1] is reported as 3540 nM, the TGI [1] is reported as 10.6 µM and the GI50 [2] is reported as 11.4 µM. The TGI [2] was 24.2 µM, the GI50 [3] was 5090 nM and the TGI [3] was 17 µM. For the same molecule, the GI50 [4] was 5290 nM, the TGI [4] was 17.7 µM and the GI50 [5] was 9.35 µM. It also gave a TGI [5] of 23.9 µM, a GI50 [6] of 3400 nM and a TGI [6] of 12.4 µM. For the same molecule, the GI50 [7] was 6.4 µM, the TGI [7] was 21 µM and the GI50 [8] was 4850 nM. The TGI [8] was 18.1 µM, the GI50 [10] was 6.8 µM and the TGI [10] was 19.9 µM. For the same molecule, the GI50 [11] was 3560 nM, the TGI [11] was 14.5 µM and the GI50 [12] was 4290 nM. It also gave a TGI [12] of 14.8 µM, a GI50 [13] of 2700 nM and a TGI [13] of 7.52 µM. For the same molecule, the GI50 [14] was 2630 nM, the TGI [14] was 7.46 µM and the GI50 [15] was 4060 nM. The TGI [15] was 15.8 µM, the GI50 [16] was 8.2 µM and the TGI [16] was 20.7 µM. For the same molecule, the GI50 [17] was 4.25 µM, the TGI [17] was 16.1 µM and the GI50 [18] was 3160 nM. For the same molecule, the TGI [18] was 12.4 µM, the GI50 [19] was 10 µM and the TGI [19] was 22 µM. The GI50 [21] was 2780 nM, the TGI [21] was 8.9 µM and the GI50 [22] was 5460 nM. The TGI [22] was 18.6 µM, the GI50 [23] was 3700 nM and the TGI [23] was 14.5 µM. It also gave a GI50 [59] of 7.38 µM, a TGI [59] of 20.3 µM and a GI50 [24] of 12.9 µM. It also gave a TGI [24] of 26.7 µM, a GI50 [25] of 11.6 µM and a TGI [25] of 23.9 µM. The GI50 [26] was 5360 nM, the TGI [26] was 17.8 µM and the GI50 [27] was 4110 nM. It also gave a TGI [27] of 15.4 µM, a GI50 [28] of 5850 nM and a TGI [28] of 18.1 µM. It also gave a GI50 [29] of 4750 nM, a TGI [29] of 16.6 µM and a GI50 [30] of 9.29 µM. The TGI [30] was 21.7 µM, the GI50 [31] was 10.8 µM and the TGI [31] was 22.9 µM. The GI50 [32] was 4040 nM, the TGI [32] was 15.6 µM and the GI50 [33] was 4700 nM. It also gave a TGI [33] of 16.2 µM, a GI50 [34] of 5560 nM and a TGI [34] of 18.6 µM. For the same molecule, the GI50 [36] was 4710 nM, the TGI [36] was 20.8 µM and the GI50 [37] was 3780 nM. It also gave a TGI [37] of 13.5 µM, a GI50 [38] of 3430 nM and a TGI [38] of 12 µM. For the same molecule, the GI50 [39] was 5290 nM, the TGI [39] was 17.4 µM and the GI50 [40] was 9.8 µM. For the same molecule, the TGI [40] was 21.6 µM, the GI50 [41] was 5.87 µM and the TGI [41] was 19.3 µM. For the same molecule, the GI50 [42] was 7.84 µM, the TGI [42] was 20.4 µM and the GI50 [43] was 2950 nM. It also gave a TGI [43] of 10.6 µM, a GI50 [44] of 3240 nM and a TGI [44] of 12 µM. For the same molecule, the GI50 [45] was 5280 nM, the TGI [45] was 19.3 µM and the GI50 [47] was 3550 nM. For the same molecule, the TGI [47] was 13.6 µM, the GI50 [48] was 8.17 µM and the TGI [48] was 20.6 µM. The GI50 [49] was 3600 nM, the TGI [49] was 13.6 µM and the GI50 [50] was 7.18 µM. It also gave a TGI [50] of 20.5 µM, a GI50 [51] of 4490 nM and a TGI [51] of 15.8 µM. The GI50 [52] was 4160 nM, the TGI [52] was 15.7 µM and the GI50 [53] was 3810 nM. It also gave a TGI [53] of 16.8 µM, a GI50 [54] of 3050 nM and a TGI [54] of 12.1 µM. The GI50 [55] was 2240 nM, the TGI [55] was 5.66 µM and the GI50 [56] was 3260 nM. The TGI [56] was 13.1 µM, the GI50 [57] was 5500 nM and the TGI [57] was 18.1 µM. It also gave a GI50 [58] of 7.32 µM and a TGI [58] of 20.2 µM.
